# Data reported in patent US20100119483A1, “PEPTIDE VIRAL ENTRY INHIBITORS” (Schering Corporation, priority 2004, published 2010).
# Several values for one entry are separate records, joined by “and”; a condition that tells them apart may be missing. Equal entries are not always repeated.
# Test system: HCV pseudoparticles
# Assay: HCV pseudoparticle (HCVpp) entry assay in Huh7 hepatoma cells, luciferase readout
# Assay type: cell-based, hepatitis C virus
# Conditions: for % of control at ~30 uM: percentage of hepatitis C virus cellular entry at 30 μM peptide vs uninhibited control
# Outline: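 Pseudoparticles carrying HCV E1/E2 on an HIV luciferase backbone were produced in 293T cells; peptide was pre-incubated 1 h at 37 °C with Huh7 cells, then virus added and luciferase read after 72 h. Dose-response used 10-point 3-fold titration from 100 ug/ml; envelope-less particles controlled non-specific entry.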
# [1] = 0.1 nM of peptide (printed for three rows), two values per peptide and row
# [2] = 0.3 nM of peptide, two values per peptide
# [3] = 1 nM of peptide, two values per peptide
# [4] = 3 nM of peptide, two values per peptide
# [5] = 10 nM of peptide, two values per peptide
# [6] = 30 nM of peptide, two values per peptide
# [7] = 100 nM of peptide, two values per peptide
# [8] = 300 nM of peptide, two values per peptide
# [9] = 10000 nM of peptide, two values per peptide
# [10] = 30000 nM of peptide, two values per peptide
substance,measurement,setting,value
A-I-K-K-E-Y-V-L-L-L-F-L-L (AIKKEYVLLLFLL; HCV peptide) [SEQ ID NO: 128],"% control (HCVpp entry), lysine scanning",[1],80 % control and 86 % control and 107 % control and 102 % control and 87 % control and 103 % control
same,"% control (HCVpp entry), lysine scanning",[2],64 % control and 88 % control
same,"% control (HCVpp entry), lysine scanning",[3],99 % control and 72 % control
same,"% control (HCVpp entry), lysine scanning",[4],84 % control and 81 % control
same,"% control (HCVpp entry), lysine scanning",[5],63 % control and 92 % control
same,"% control (HCVpp entry), lysine scanning",[6],59 % control and 55 % control
same,"% control (HCVpp entry), lysine scanning",[7],52 % control and 46 % control
same,"% control (HCVpp entry), lysine scanning",[8],22 % control and 28 % control
same,"% control (HCVpp entry), lysine scanning",[9],7 % control and 4 % control
K-I-K-W-E-Y-V-L-L-L-F-L-L [SEQ ID NO: 101],"% control (HCVpp entry), lysine scanning",[1],83 % control and 107 % control and 77 % control and 104 % control and 119 % control and 101 % control
same,"% control (HCVpp entry), lysine scanning",[2],96 % control and 103 % control
same,"% control (HCVpp entry), lysine scanning",[3],65 % control and 90 % control
same,"% control (HCVpp entry), lysine scanning",[4],52 % control and 77 % control
same,"% control (HCVpp entry), lysine scanning",[5],54 % control and 57 % control
same,"% control (HCVpp entry), lysine scanning",[6],37 % control and 28 % control
same,"% control (HCVpp entry), lysine scanning",[7],26 % control and 25 % control
same,"% control (HCVpp entry), lysine scanning",[8],26 % control and 29 % control
same,% of control at ~30 uM,,4%
"A-A-K-W-E-Y-V-L-L-L-F-L-L (AAKWEYVLLLFLL; HCV peptide) [SEQ ID NO: 87, Ala-scan]","% control (HCVpp entry), alanine scanning",[1],90 % control and 108 % control and 113 % control and 93 % control and 104 % control
same,"% control (HCVpp entry), alanine scanning",[2],84 % control and 75 % control
same,"% control (HCVpp entry), alanine scanning",[3],110 % control and 93 % control
same,"% control (HCVpp entry), alanine scanning",[4],92 % control and 68 % control
same,"% control (HCVpp entry), alanine scanning",[5],45 % control and 57 % control
same,"% control (HCVpp entry), alanine scanning",[6],42 % control and 51 % control
same,"% control (HCVpp entry), alanine scanning",[7],19 % control and 15 % control
same,"% control (HCVpp entry), alanine scanning",[8],16 % control and 13 % control
same,"% control (HCVpp entry), alanine scanning",[9],15 % control and 23 % control
same,"% control (HCVpp entry), alanine scanning",[10],11 % control and 6 % control
same,% of control at ~30 uM,,14%
A-I-K-W-E-Y-V-K-L-L-F-L-L (AIKWEYVKLLFLL; HCV peptide) [SEQ ID NO: 132],"% control (HCVpp entry), lysine scanning",[1],73 % control and 89 % control and 95 % control and 92 % control and 117 % control and 96 % control
same,"% control (HCVpp entry), lysine scanning",[2],100 % control and 71 % control
same,"% control (HCVpp entry), lysine scanning",[3],67 % control and 79 % control
same,"% control (HCVpp entry), lysine scanning",[4],78 % control and 75 % control
same,"% control (HCVpp entry), lysine scanning",[5],54 % control and 56 % control
same,"% control (HCVpp entry), lysine scanning",[6],71 % control and 89 % control
same,"% control (HCVpp entry), lysine scanning",[7],59 % control and 62 % control
same,"% control (HCVpp entry), lysine scanning",[8],46 % control and 44 % control
same,"% control (HCVpp entry), lysine scanning",[9],49 % control and 50 % control
same,"% control (HCVpp entry), lysine scanning",[10],42 % control and 41 % control
A-I-K-W-E-P-V-L-L-L-F-L-L (AIKWEPVLLLFLL; HCV peptide) [SEQ ID NO: 120],"% control (HCVpp entry), proline scanning",[1],82 % control and 78 % control and 102 % control and 80 % control and 101 % control and 117 % control
same,"% control (HCVpp entry), proline scanning",[2],90 % control and 75 % control
same,"% control (HCVpp entry), proline scanning",[3],91 % control and 75 % control
same,"% control (HCVpp entry), proline scanning",[4],66 % control and 76 % control
same,"% control (HCVpp entry), proline scanning",[5],73 % control and 76 % control
same,"% control (HCVpp entry), proline scanning",[6],72 % control and 40 % control
same,"% control (HCVpp entry), proline scanning",[7],39 % control
same,"% control (HCVpp entry), proline scanning",[8],33 % control and 39 % control
same,"% control (HCVpp entry), proline scanning",[9],24 % control
same,"% control (HCVpp entry), proline scanning",[10],38 % control and 42 % control
A-I-K-W-E-Y-V-L-L-L-F-L-P [SEQ ID NO: 127],"% control (HCVpp entry), proline scanning",[1],90 % control and 86 % control and 75 % control and 122 % control and 113 % control
same,"% control (HCVpp entry), proline scanning",[2],84 % control and 81 % control
same,"% control (HCVpp entry), proline scanning",[3],71 % control and 85 % control
same,"% control (HCVpp entry), proline scanning",[4],66 % control and 53 % control
same,"% control (HCVpp entry), proline scanning",[5],102 % control and 74 % control
same,"% control (HCVpp entry), proline scanning",[6],78 % control and 83 % control
same,"% control (HCVpp entry), proline scanning",[7],77 % control and 74 % control
same,"% control (HCVpp entry), proline scanning",[8],63 % control and 72 % control
same,"% control (HCVpp entry), proline scanning",[9],29 % control and 27 % control
same,"% control (HCVpp entry), proline scanning",[10],57 % control and 29 % control
"A-G-K-W-E-Y-V-L-L-L-F-L-L (AGKWEYVLLLFLL; HCV peptide) [SEQ ID NO: 83, Gly-scan]","% control (HCVpp entry), glycine scanning","0.00003 uM of peptide, two values per peptide and row",98 % control and 80 % control and 128 % control and 94 % control
same,"% control (HCVpp entry), glycine scanning","0.0001 uM of peptide, two values per peptide",75 % control and 94 % control
same,"% control (HCVpp entry), glycine scanning","0.0003 uM of peptide, two values per peptide",94 % control and 83 % control
same,"% control (HCVpp entry), glycine scanning","0.001 uM of peptide, two values per peptide",70 % control and 67 % control
same,"% control (HCVpp entry), glycine scanning","0.003 uM of peptide, two values per peptide",51 % control and 66 % control
same,"% control (HCVpp entry), glycine scanning","0.01 uM of peptide, two values per peptide",76 % control and 56 % control
same,"% control (HCVpp entry), glycine scanning","0.03 uM of peptide, two values per peptide",43 % control and 62 % control
same,"% control (HCVpp entry), glycine scanning","30 uM of peptide, two values per peptide",18 % control and 15 % control
same,% of control at ~30 uM,,9%
"A-I-K-W-E-A-V-L-L-L-F-L-L (AIKWEAVLLLFLL; HCV peptide) [SEQ ID NO: 91, Ala-scan]","% control (HCVpp entry), alanine scanning",[1],101 % control and 73 % control and 107 % control and 89 % control and 93 % control and 111 % control
same,"% control (HCVpp entry), alanine scanning",[2],81 % control and 84 % control
same,"% control (HCVpp entry), alanine scanning",[3],120 % control and 102 % control
same,"% control (HCVpp entry), alanine scanning",[4],86 % control and 110 % control
same,"% control (HCVpp entry), alanine scanning",[5],59 % control and 66 % control
same,"% control (HCVpp entry), alanine scanning",[6],49 % control and 48 % control
same,"% control (HCVpp entry), alanine scanning",[7],35 % control and 32 % control
same,"% control (HCVpp entry), alanine scanning",[8],17 % control and 27 % control
same,"% control (HCVpp entry), alanine scanning",[9],30 % control and 15 % control
same,"% control (HCVpp entry), alanine scanning",[10],12 % control and 18 % control
same,% of control at ~30 uM,,16%
A-I-K-W-E-Y-V-L-K-L-F-L-L (AIKWEYVLKLFLL; HCV peptide) [SEQ ID NO: 133],"% control (HCVpp entry), lysine scanning",[1],78 % control and 85 % control and 96 % control and 101 % control and 87 % control and 116 % control
same,"% control (HCVpp entry), lysine scanning",[2],108 % control and 78 % control
same,"% control (HCVpp entry), lysine scanning",[3],96 % control and 82 % control
same,"% control (HCVpp entry), lysine scanning",[4],95 % control and 79 % control
same,"% control (HCVpp entry), lysine scanning",[5],77 % control and 113 % control
same,"% control (HCVpp entry), lysine scanning",[6],80 % control and 68 % control
same,"% control (HCVpp entry), lysine scanning",[7],75 % control and 60 % control
same,"% control (HCVpp entry), lysine scanning",[8],41 % control and 56 % control
same,"% control (HCVpp entry), lysine scanning",[9],24 % control and 39 % control
